{"source": "patent EP2229935A1", "about": "“Peptide derivatives or pharmaceutically acceptable salts thereof, method for producing the same, use of said derivatives and pharmaceutical composition” (Nebolsin, Vladimir Evgenievich, priority 1997, dated 1999)", "key": {"mongrel female rats": {"tested_on": "mongrel female rats", "experiment": "Hepatoprotective activity: subchronic liver lesion (hepatitis) with CCl4", "type": "in vivo", "conditions": "rats, CCl4 hepatitis; for Cholesterol level, mg/100 ml VLDL-CS / Cholesterol level, mg/100 ml LDL-CS / Cholesterol level, mg/100 ml HDL-CS / Cholesterol level, mg/100 ml total-CS / TG level, mg/100ml / ALT, nM/dl / AST, nM/dl: blood serum; for Cholesterol level, mg/100 ml VLDL-CS: TG/5; for Cholesterol level, mg/100 ml LDL-CS: calculated by formula; for ALT, nM/dl / AST, nM/dl: oral 8 days; for Lipid composition (in percent of total lipids) FCS / Lipid composition (in percent of total lipids) Phospholipids / Lipid composition (in percent of total lipids) Triglycerides: liver", "method": "Hepatoprotective properties of the compounds were studied on a model of subchronic liver lesion (hepatitis) with carbon quadrichloride.\n70 mongrel female rats with initial body mass 190-200 g fed a standard vivarium ration, were used in experiment. Animals were divided into 7 groups (10 rats each): • Group 1 - control one; during the first four days of experiment animals were subcutaneously injected 0.2 ml vaseline oil; • Group 2 - during the first four days animals were subcutaneously injected 50% CCl4 solution in vaseline oil at a rate of 0.1 ml per 100 g body mass; • Group 3 - Legalon in a starch gel was administered orally for 8 days at a dose 30 mg/kg against the background of CCl4 administration; […] , resepectively, was administered in a way similar to group III; […] , resepectively, was administered in a way similar to group III.\nThe test compounds and Legalon were administered to animals 1 hour prior to CCl4 administration. 24 hours after the last administration of the drugs, animals were decapitated.\nActivity of blood serum transaminases ALT and AST was assessed using the conventional Frenkel-Rightman method [Laboratory examination methods in the clinic. Ed. by Menshikov V.V. Moscow, Meditsina publishers (1969), 302 pp.].\nThe published method [Rodionova L.P. Modification of blood serum trigyceride level determination method. Laboratomoye delo (Laboratory Matter) (1980), No 5, pp. 297-299] was used to determine blood serum TG level.\nBlood serum LP final product MDA was determined using the published method [Korobeinikova E.N. Modification of lipid peroxydation product determination in reaction with thiobarbituric acid. Laboratomoye delo (Laboratory Matter) (1989), No 7, pp. 8-10]. Concentration of TBA-active products was calculated using regression equation: C = 0.21 + 0.26D, [formula] where C - concentration of TBA-active products (in nM MDA per 1 ml of serum), D - index D535 -D580 (in optic density units).\nTotal hepatic lipids were extracted using the modified Folch method [Cates M. Technology of Lipidology. Moscow, Mir publishers (1975), pp. 74-76]. Quantative content of lipid fractions was assessed with thin layer chromatography method (TLC) using the system of solvents hexane:diethyl ether:acetic acid at ratio 80:20:2. Zones of individual lipid fractions were determined using 10% alcohol solution of phosphoromolyobdenic acid which following elution were spectrophotometrically analysed at 600 nm.\nHepatic MDA level was determined using the published method [Stalnaya I.D., Garishvili T.G. Malonic dialdehyde determination method using thiobarbituric acid. In: Modem methods in biochemistry. Moscow, Meditsina publishers (1977), pp. 66-69]. MDA quantity was calculated using molar extinction coefficient value of stained trimethynic complex formed by MDA with two TBA molecules: E = 1.56 × 10^5 (cm)^-1 × M^-1 [formula]"}, "[1]": {"tested_on": "progesterone, 17-oxyprogesterone, 11-desoxycortisol and cortisol", "experiment": "Blood serum hormone levels (radioimmunoassay)", "type": "in vivo, guinea pigs", "conditions": "oral three times 50 µg/kg", "method": "Sensibilization of animals was done as described in example 27. Blood for hormonal level determination was sampled in animals before commencement of experiment and 18 hours after the last drug administration from 10 to 11 hours. […] A comparative hormonal state analysis was carried out by individual changes in each animal in a group. Mean parametric values expressed in nM/l, are presented by the groups in table 21.\nBlood serum levels of the hormones progesterone, 17-oxyprogesterone, 11-desoxycortisol and cortisol were determined by radioimmunoassay using the Beloris company kits. Hormone concentration in samples was determined by the relation graph between the activity of a precipitated bound labelled hormone and hormone concentration in the calibration samples."}, "Human lymphocytes": {"tested_on": "Human lymphocytes", "experiment": "Concanavalin A-induced blasttransformation of lymphocytes", "type": "cell-based", "method": "Human lymphocytes were used for blasttransformation reaction [Kiseleva E.P., Tsveibakh A.S., Goldman E.I., Pigareva N.V. Application of a micromethod to study blasttransformation of lymphocytes in humans and animals. Immunology (1985), No 1, pp. 76-78]. 10 ml blood were collected into a sterile syringe containing heparine (to final concentration 25 U/ml) and incubated to sediment red blood cells (60-90 minutes at 37°C). Leukocytic suspension layer was selected and the number of nucleated cells was calculated. The cells obtained in such a way were incubated for 72 hours in a humid atmosphere with 5% CO2 at 37°C in the cells of plates for immune reactions in RPMI-1640 medium comprising 15% fetal calf serum, […] Neomycine (incubation mixture volume 0.15 ml). 5 x 10^5 cells were introduced into each plate cell. Incubation was carried out in the presence or absence of mitogen phytohemagglutinin (PHA) (Sigma) […] or concanavalin A (ConA) (Sigma) […] with or without addition of the test compounds at different concentrations. […] H^3 -thymidine in RPMI-1640 medium were introduced into each cell 16 hours before incubation termination. Following culturing period termination, 0.15 ml cellular suspension from each plate cell were transferred on the FN-8 paper filters. Filters were dried, washed two times with normal saline for 5 minutes then twice with TCA for 60 minutes. After drying, radioactivity of samples was calculated on a counter in the ZhS-8 scintillator. Stimulation index was calculated as ratio of sample radioactivity with mitogen to sample radioactivity without mitogen."}}, "note": "Marks after values point to notes of the source that are not given here.", "data": [{"substance": "γ-L-glutamylhistamine [compound XLIV]", "values": [{"measurement": "Cholesterol level, mg/100 ml VLDL-CS", "setting": "mongrel female rats; 0.05 µg/kg", "result": "13.9 ± 1.1", "unit": "p<0.01 mg/100 ml"}, {"measurement": "Cholesterol level, mg/100 ml VLDL-CS", "setting": "mongrel female rats; 0.5 µg/kg", "result": "12.4 ± 0.7", "unit": "p<0.001 mg/100 ml"}, {"measurement": "Cholesterol level, mg/100 ml LDL-CS", "setting": "mongrel female rats; 0.05 µg/kg", "result": "21.9 ± 1.1", "unit": "p<0.001 mg/100 ml"}, {"measurement": "Cholesterol level, mg/100 ml LDL-CS", "setting": "mongrel female rats; 0.5 µg/kg", "result": "17.1 ± 1.0", "unit": "p<0.01 mg/100 ml"}, {"measurement": "Cholesterol level, mg/100 ml HDL-CS", "setting": "mongrel female rats; 0.05 µg/kg", "result": "49.6 ± 2.5", "unit": "mg/100 ml"}, {"measurement": "Cholesterol level, mg/100 ml total-CS", "setting": "mongrel female rats; 0.05 µg/kg", "result": "85.3 ± 3.9", "unit": "mg/100 ml"}, {"measurement": "TG level, mg/100ml", "setting": "mongrel female rats; 0.05 µg/kg", "result": "68.3 ± 5.7", "unit": "p<0.001 mg/100ml"}, {"measurement": "Cholesterol level, mg/100 ml HDL-CS", "setting": "mongrel female rats; 0.5 µg/kg", "result": "57.5 ± 5.1", "unit": "mg/100 ml"}, {"measurement": "Cholesterol level, mg/100 ml total-CS", "setting": "mongrel female rats; 0.5 µg/kg", "result": "87.2 ± 6.5", "unit": "mg/100 ml"}, {"measurement": "TG level, mg/100ml", "setting": "mongrel female rats; 0.5 µg/kg", "result": "62.4 ± 3.9", "unit": "p<0.001 mg/100ml"}, {"measurement": "ALT, nM/dl", "setting": "mongrel female rats; daily dose 0.05 mg/kg", "result": "599 ± 18", "unit": "nM/dl"}, {"measurement": "AST, nM/dl", "setting": "mongrel female rats; daily dose 0.05 mg/kg", "result": "470 ± 17", "unit": "nM/dl"}, {"measurement": "ALT, nM/dl", "setting": "mongrel female rats; daily dose 0.50 mg/kg", "result": "551 ± 28", "unit": "nM/dl"}, {"measurement": "AST, nM/dl", "setting": "mongrel female rats; daily dose 0.50 mg/kg", "result": "475 ± 19", "unit": "nM/dl"}, {"measurement": "Lipid composition (in percent of total lipids) FCS", "setting": "mongrel female rats; 0.05 µg/kg", "result": "18.0 ± 0.8% of total lipids"}, {"measurement": "Lipid composition (in percent of total lipids) Phospholipids", "setting": "mongrel female rats; 0.05 µg/kg", "result": "22.8 ± 0.9% of total lipids"}, {"measurement": "Lipid composition (in percent of total lipids) Triglycerides", "setting": "mongrel female rats; 0.05 µg/kg", "result": "39.9 ± 1.7% of total lipids"}, {"measurement": "Lipid composition (in percent of total lipids) FCS", "setting": "mongrel female rats; 0.5 µg/kg", "result": "20.6 ± 0.8 p<0.05% of total lipids"}, {"measurement": "Lipid composition (in percent of total lipids) Phospholipids", "setting": "mongrel female rats; 0.5 µg/kg", "result": "26.1 ± 0.6 p<0.001% of total lipids"}, {"measurement": "Lipid composition (in percent of total lipids) Triglycerides", "setting": "mongrel female rats; 0.5 µg/kg", "result": "33.9 ± 1.0 p<0.05% of total lipids"}, {"measurement": "Hepatic MDA, nM/l", "setting": "mongrel female rats; 0.05 mg/kg", "result": "4.47 ± 0.45", "unit": "p<0.05 nM/l"}, {"measurement": "Serum MDA, nM/l", "setting": "mongrel female rats; 0.05 mg/kg", "result": "5.82 ± 0.38", "unit": "p<0.05 nM/l"}, {"measurement": "Hepatic MDA, nM/l", "setting": "mongrel female rats; 0.50 mg/kg", "result": "3.51 ± 0.30", "unit": "p<0.001 nM/l"}, {"measurement": "Serum MDA, nM/l", "setting": "mongrel female rats; 0.50 mg/kg", "result": "4.72 ± 0.57", "unit": "p<0.01 nM/l"}, {"measurement": "Progesterone, blood serum level (Experiment)", "setting": "[1]; intact guinea pigs, individual control 2.53", "result": 2.87, "unit": "nM/l"}, {"measurement": "Oxyprogesterone, blood serum level (Experiment)", "setting": "[1]; intact guinea pigs, individual control 2.83", "result": "3.88* nM/l"}, {"measurement": "Desoxycortisol, blood serum level (Experiment)", "setting": "[1]; intact guinea pigs, individual control 20.8", "result": "30.95* nM/l"}, {"measurement": "Cortisol, blood serum level (Experiment)", "setting": "[1]; intact guinea pigs, individual control 1474.5", "result": "1891.5* nM/l"}, {"measurement": "Progesterone, blood serum level (Experiment)", "setting": "[1]; sensitized guinea pigs, individual control 1.73", "result": "5.08** nM/l"}, {"measurement": "Oxyprogesterone, blood serum level (Experiment)", "setting": "[1]; sensitized guinea pigs, individual control 1.79", "result": "2.31* nM/l"}, {"measurement": "Desoxycortisol, blood serum level (Experiment)", "setting": "[1]; sensitized guinea pigs, individual control 28.9", "result": 33.5, "unit": "nM/l"}, {"measurement": "Cortisol, blood serum level (Experiment)", "setting": "[1]; sensitized guinea pigs, individual control 1910.3", "result": 1997.0, "unit": "nM/l"}, {"measurement": "blasttranformation reaction of human lymphocytes induced by ConA", "setting": "Human lymphocytes", "result": "stimulating effect"}, {"measurement": "Radioactivity, number of pulses for 20 seconds", "setting": "Human lymphocytes; 10^-3 M/l, +ConA", "result": "1072 ± 135 number of pulses for 20 seconds"}, {"measurement": "Stimulation index", "setting": "Human lymphocytes; 10^-3 M/l, +ConA", "result": 3.01}, {"measurement": "Radioactivity, number of pulses for 20 seconds", "setting": "Human lymphocytes; 10^-3 M/l, no mitogen", "result": "356±51 number of pulses for 20 seconds"}, {"measurement": "Radioactivity, number of pulses for 20 seconds", "setting": "Human lymphocytes; 10^-4 M/l, +ConA", "result": "1259 ± 90 number of pulses for 20 seconds"}, {"measurement": "Stimulation index", "setting": "Human lymphocytes; 10^-4 M/l, +ConA", "result": 3.91}, {"measurement": "Radioactivity, number of pulses for 20 seconds", "setting": "Human lymphocytes; 10^-4 M/l, no mitogen", "result": "322 ± 38 number of pulses for 20 seconds"}, {"measurement": "Radioactivity, number of pulses for 20 seconds", "setting": "Human lymphocytes; 10^-5 M/l, +ConA", "result": "1695 ± 139 number of pulses for 20 seconds"}, {"measurement": "Stimulation index", "setting": "Human lymphocytes; 10^-5 M/l, +ConA", "result": 5.00}, {"measurement": "Radioactivity, number of pulses for 20 seconds", "setting": "Human lymphocytes; 10^-5 M/l, no mitogen", "result": "339 ± 32 number of pulses for 20 seconds"}, {"measurement": "Radioactivity, number of pulses for 20 seconds", "setting": "Human lymphocytes; 10^-6 M/l, +ConA", "result": "1963 ± 205 number of pulses for 20 seconds"}, {"measurement": "Stimulation index", "setting": "Human lymphocytes; 10^-6 M/l, +ConA", "result": 6.96}, {"measurement": "Radioactivity, number of pulses for 20 seconds", "setting": "Human lymphocytes; 10^-6 M/l, no mitogen", "result": "289 ± 52 number of pulses for 20 seconds"}, {"measurement": "Radioactivity, number of pulses for 20 seconds", "setting": "Human lymphocytes; 10^-7 M/l, +ConA", "result": "1786 ± 241 number of pulses for 20 seconds"}, {"measurement": "Stimulation index", "setting": "Human lymphocytes; 10^-7 M/l, +ConA", "result": 7.38}, {"measurement": "Radioactivity, number of pulses for 20 seconds", "setting": "Human lymphocytes; 10^-7 M/l, no mitogen", "result": "242 ± 19 number of pulses for 20 seconds"}, {"measurement": "Radioactivity, number of pulses for 20 seconds", "setting": "Human lymphocytes; 10^-8 M/l, +ConA", "result": "971 ± 44 number of pulses for 20 seconds"}, {"measurement": "Stimulation index", "setting": "Human lymphocytes; 10^-8 M/l, +ConA", "result": 4.17}, {"measurement": "Radioactivity, number of pulses for 20 seconds", "setting": "Human lymphocytes; 10^-8 M/l, no mitogen", "result": "233 ± 54 number of pulses for 20 seconds"}]}]}
